In ChEMBL document CHEMBL1134578, “X-Ray crystal structures of Candida albicans dihydrofolate reductase: high resolution ternary complexes in which the dihydronicotinamide moiety of NADPH is displaced by an inhibitor” (J Med Chem, 2001):

Tests used:
Dihydrofolate reductase [1] = biological target: T1, Dihydrofolate reductase (Candida albicans, UniProt P22906); assay: Inhibitory activity against Candida albicans Dihydrofolate Reductase (DHFR)
T1 sequence (P22906 whole entry): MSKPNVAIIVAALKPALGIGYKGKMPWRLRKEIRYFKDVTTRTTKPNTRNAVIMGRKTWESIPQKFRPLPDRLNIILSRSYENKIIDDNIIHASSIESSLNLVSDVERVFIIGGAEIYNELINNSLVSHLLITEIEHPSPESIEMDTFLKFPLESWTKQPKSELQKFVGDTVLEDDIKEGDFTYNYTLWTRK

[2] = Selective ratio of Human / Candida albicans was determined
Dihydrofolate reductase [3] = biological target: T2, Dihydrofolate reductase (Homo sapiens, UniProt P00374); assay: Inhibitory activity against recombinant human dihydrofolate reductase
T2 sequence (P00374 whole entry): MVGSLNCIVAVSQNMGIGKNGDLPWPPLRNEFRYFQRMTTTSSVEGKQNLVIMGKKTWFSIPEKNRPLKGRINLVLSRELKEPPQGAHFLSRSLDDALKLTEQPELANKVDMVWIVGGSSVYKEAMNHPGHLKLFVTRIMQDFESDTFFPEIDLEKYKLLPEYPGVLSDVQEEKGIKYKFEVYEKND

Molecule `CCC(CC)n1ccc2c3c(N)nc(N)nc3ccc21` has an IC50 (Dihydrofolate reductase [1]) of 4 nM, an SI [2] of 1.7 and an IC50 (Dihydrofolate reductase [3]) of 6.6 nM.
